# Reference: US10471118B2, “Retinylamine derivitives for treatment of ocular disorders” (CASE WESTERN RESERVE UNIVERSITY, priority 2014, dated 2019)
# Legend:
# Caco-2 cells = experiment: Caco-2 cell monolayer transport; format: in vitro ADME, human; details: 500 μM apical, PBS pH 6, within 24 h, compared with Ret-NH2
# Description: 1. Coating and preparing culture inserts for seeding: Rat tail collagen was diluted 1:9 with 0.5% acetic acid. The resulting solution (200 ul) was added to each insert to coat the surface. The inserts were air-dried overnight, followed by a UV irradiation for 45 min to sterilize the inserts. 2. Seeding cells onto an insert: A concentration of 4×10^5 cells/well EMEM solution containing 20% FBS was added to the precoated insert. Another 2 ml of fresh EMEM media was added to the other side (bottom). The media was changed after 1 day of incubation and every other day after that. The cells were cultured for 21 days until they were mature. 3. Transport experiment: The media was aspirated out. The cell monolayers were washed with PBS three times. Cells were further incubated with PBS for 1 h under 37° C. to allow them to release all the materials that may be taken up during incubation. PBS solution was removed and the prodrug solution (500 μM in 2.0 ml PBS (pH=6) solution) was loaded to the apical side. The basolateral side was loaded with 2.5 ml fresh PBS solution. The plates were incubated under 37° C. Samples of 200 μl were withdrawn from the basolateral side at several time points within 24 h. The drug release amount was determined by UV spectrometer.
# ARPE19 cells = experiment: ARPE19 cell uptake; format: cell-based, human; details: 10 μM, 16 h, compared with Ret-NH2
# Description: The ARPE19 cells (human RPE cells purchased from American Type Culture Collection) were plated in 6-well plates using Dulbecco's Modified Eagle Medium (DMEM) and allowed to grow to 90% confluency. The cells were then incubated with DMEM containing 10 μM derivatives for 16 hours under dark room conditions. Control group was cell without drug. Medium was removed and cells were washed three times by PBS after 16 h of incubation. Cells were then collected. Samples were treated with 400 μl of methanol, homogenized at 37° C. for 1 h, followed by a centrifugation. The 100 μl of the supernatant was analyzed by reverse phase HPLC. Reverse-phase HPLC (analytical C18 reverse column; 5 μm; 250 mm×4.6 mm; flow rate of 1.0 mL/min; 60:40 acetonitrile:H2O (v:v) with 0.05% trifluoroacetic acid; detection at 325 nm) was utilized to determine retinylamine or its derivative in […].
# [1] = Biodistribution of N-retinylamides and retinylamine derivatives in liver and eye after oral gavage; format: in vivo, mouse; details: for original drug detected in the eye: 2 h and 16 h
# Description: Female C57BL mice (4-week-old) were randomly divided into seven groups, six treated groups and one control group. Free Ret-NH2 (3.5 μmol per mouse, dissolved in DMSO and dispersed in vegetable oil) or retinylamine derivatives (Ret-Gly, Ret-L-Val-Gly, Ret-L-Phe, Ret-L-Leu, Ret-L-Val, 3.5 μmol per mouse, dissolved in DMSO and dispersed in vegetable oil) was administered by gastric gavage, control group was only gavaged vegetable oil. Then at each predetermined time point (2 and 16 h after drug administration), 3 mice were sacrificed. The liver and eye balls were collected to determine tissue N-retinylamide content for pharmacokinetic analysis. A portion of the liver tissue (0.3-0.5 g) was weighed, homogenized in 2 mL 1:1 ethanol:PBS solution and the eye balls were similarly processed (eye balls were combined for 3 mice). N-Retinylamides were extracted in 4 mL hexane, concentrated, and reconstituted to a 300 μL volume for liver (200 μL for eye). Normal-phase HPLC (Agilent-Zorbax SIL; 5 μm; 4.5×250 mm; flow rate of 1.4 mL/min; 80:20 hexane:ethyl acetate (v:v); detection at 325 nm) was utilized to determine N-retinylamide concentration in these tissues.
# Female C57BL mice (4-week-old) were randomly divided into seven groups, six treated groups and one control group. Free Ret-NH2 (3.5 μmol per mouse, dissolved in DMSO and dispersed in vegetable oil) or retinylamine derivative (Ret-Gly, Ret-L-Val-Gly, Ret-L-Phe, Ret-L-Leu, Ret-L-Val, 3.5 μmol per mouse, dissolved in DMSO and dispersed in vegetable oil) was administered by gastric gavage, control group was only gavaged vegetable oil. Then at each predetermined time point (2 and 16 h after drug administration), 3 mice were sacrificed. The liver and eye balls were collected to determine tissue drug content for pharmacokinetic analysis. A portion of the liver tissue (0.3-0.5 g) was weighed, homogenized in 2 mL 1:1 ethanol:PBS solution and the eye balls were similarly processed. Retinylamine or its derivative was extracted in 4 mL ethyl acetate, concentrated, and reconstituted to a 300 μL volume for liver (200 μL for eye). Reverse-phase HPLC (analytical C18 reverse column; 5 μm; 250 mm×4.6 mm; flow rate of 1.0 mL/min; 60:40 acetonitrile:H2O (v:v) with 0.05% trifluoroacetic acid; detection at 325 nm) was utilized to determine retinylamine or its derivative in these tissues. […]
# No N-retinylamides were detected in the eye at 2 h for all treated mice. The concentration of N-retinylamides in the liver of all treated mice increased at 16 h post-treatment. […] The concentrations of the original drugs were also determined in the liver and eye at 2 h and 16 h (FIGS. 7C, D). All tested drugs, including Ret-NH2, were detected in liver and their concentrations decreased from 2 h to 16 h.
# [2] = Storage stability of RVG and Ret-NH2; format: physicochemical
# Source text: The synthesis was straightforward, and Ret-NH2 reacted with fluorenylmethyloxycarbonyl (Fmoc) protected amino acids or peptides in the presence of coupling agents. The Fmoc group then was removed using 20% piperidine in […] solution to give target molecules. The retinylamine derivatives were characterized by ^1H-NMR, ^13C-NMR and mass spectroscopy. The retinylamine derivatives had the purity over 95% as determined by HPLC except 3m Ret-Gly-Gly (RGG) with the purity of 90% (see SI). We tested the stability of RVG. Less than 5% degradation was observed when RVG was stored in the desiccator under vacuum at r.t. for 2 months, while 95% of Ret-NH2 decomposed under the same condition within 1 week.
# [3] = 3.5 μmol per mouse oral, C57BL mice, 16 h
SMILES,transport through the Caco-2 monolayer (Caco-2 cells),uptake in ARPE19 cells (ARPE19 cells),original drug detected in the eye ([1]; 3.5 μmol per mouse oral),metabolism in the eye ([1]; conclusion from biodistribution at 2 h and 16 h),"N-retinylamides in the eye [1, 3]","liver concentration of N-retinylamides [1, 3]",degradation on storage ([2]; stored in the desiccator under vacuum at r.t. for 2 months),"decomposed on storage ([2]; desiccator under vacuum at r.t., within 1 week) [%]"
"CC1=C(/C=C/C(C)=C/C=C/C(C)=C/CNC(=O)[C@@H](N)Cc2ccccc2)C(C)(C)CCC1 [RF, (S)-2-amino-N-((2E,4E,6E,8E)-3,7-dimethyl-9-(2,6,6-trimethylcyclohex-1-en-1-yl)nona-2,4,6,8-tetraen-1-yl)-3-phenylpropanamide]",significantly higher transport through the Caco-2 monolayer,higher uptake in ARPE19 cells than Ret-NH2,only detected at 2 h,rapidly metabolized into inactive N-retinylamides in the eye,,,,
"CC1=C(/C=C/C(C)=C/C=C/C(C)=C/CNC(=O)[C@@H](NC(=O)CN)C(C)C)C(C)(C)CCC1 [RVG, (S)-2-(2-aminoacetamido)-N-((2E,4E,6E,8E)-3,7-dimethyl-9-(2,6,6-trimethylcyclohex-1-en-1-yl)nona-2,4,6,8-tetraen-1-yl)-3-methylbutanamide]",significantly higher transport through the Caco-2 monolayer,higher uptake in ARPE19 cells than Ret-NH2,only detected at 16 h,,no detectable N-retinylamides in the eye,lower liver concentration of N-retinylamides than RF and RL,Less than 5%,
"CC1=C(/C=C/C(C)=C/C=C/C(C)=C/CN)C(C)(C)CCC1 [Ret-NH2, (2E,4E,6E,8E)-3,7-dimethyl-9-(2,6,6-trimethylcyclohex-1-en-1-yl)nona-2,4,6,8-tetraen-1-amine]",,,No free Ret-NH2 was detected in the eye,,,,,95
